Source: PMC10305003, “Phenothiazine- and Carbazole-Cyanochalcones as Dual Inhibitors of Tubulin Polymerization and Human Farnesyltransferase” (Pharmaceuticals, 2023)

Key:
[1] = test system: T-47D; assay: NCI-60 one-dose screen, sulforhodamine B; type: cell-based, human; settings: Breast Cancer T-47D, one dose 10 µM, 48h
Experimental: (§1) 2-Methylthiophenothiazine-cyanochalcones 2a-o were submitted to the National Cancer Institute (NCI) and were further selected for biological evaluation based on their panel of 60 cancer cell lines in vitro. Thus, 2-methylthiophenothiazines 2a-o were tested at a single dose of 10 µM in the full NCI-60 panel. The one-dose data are reported as an average of the growth inhibition percentage of the treated cells (Table 3 and Figure S1 in the Supplementary Materials section). Only three compounds, 2k, 2l, and 2o, from the series were active.
(§2) Compounds 2k, 2l, and 2o were tested on a panel of 60 human cancer cell lines at the National Cancer Institute, Germantown, MD [31]. The cytotoxicity studies were conducted using a 48h exposure protocol using the sulforhodamine B assay.

[2] = test system: CCRF-CEM; assay: NCI-60 one-dose screen, sulforhodamine B; type: cell-based, human; settings: Leukemia CCRF-CEM, one dose 10 µM, 48h
Experimental: as §1, §2

[3] = test system: A549/ATCC; assay: NCI-60 one-dose screen, sulforhodamine B; type: cell-based, human; settings: Non-Small Cell Lung Cancer A549/ATCC, one dose 10 µM, 48h
Experimental: as §1, §2

[4] = test system: MOLT-4; assay: NCI-60 one-dose screen, sulforhodamine B; type: cell-based, human; settings: Leukemia MOLT-4, one dose 10 µM, 48h
Experimental: as §1, §2

[5] = test system: KM12; assay: NCI-60 one-dose screen, sulforhodamine B; type: cell-based, human; settings: Colon Cancer KM12, one dose 10 µM, 48h
Experimental: as §1, §2

[6] = test system: A498; assay: NCI-60 one-dose screen, sulforhodamine B; type: cell-based, human; settings: Renal Cancer A498, one dose 10 µM, 48h
Experimental: as §1, §2

[7] = test system: U251; assay: NCI-60 one-dose screen, sulforhodamine B; type: cell-based, human; settings: CNS Cancer U251, one dose 10 µM, 48h
Experimental: as §1, §2

[8] = test system: SNB-19; assay: NCI-60 one-dose screen, sulforhodamine B; type: cell-based, human; settings: CNS Cancer SNB-19, one dose 10 µM, 48h
Experimental: as §1, §2

[9] = test system: 786-0; assay: NCI-60 one-dose screen, sulforhodamine B; type: cell-based, human; settings: Renal Cancer 786-0, one dose 10 µM, 48h
Experimental: as §1, §2

[10] = test system: OVCAR-3; assay: NCI-60 one-dose screen, sulforhodamine B; type: cell-based, human; settings: Ovarian Cancer OVCAR-3, one dose 10 µM, 48h
Experimental: as §1, §2

[11] = test system: CAKI-1; assay: NCI-60 one-dose screen, sulforhodamine B; type: cell-based, human; settings: Renal Cancer CAKI-1, one dose 10 µM, 48h
Experimental: as §1, §2

[12] = test system: EKVX; assay: NCI-60 one-dose screen, sulforhodamine B; type: cell-based, human; settings: Non-Small Cell Lung Cancer EKVX, one dose 10 µM, 48h
Experimental: as §1, §2

[13] = test system: MCF7; assay: NCI-60 one-dose screen, sulforhodamine B; type: cell-based, human; settings: Breast Cancer MCF7, one dose 10 µM, 48h
Experimental: as §1, §2

[14] = test system: IGROV1; assay: NCI-60 one-dose screen, sulforhodamine B; type: cell-based, human; settings: Ovarian Cancer IGROV1, one dose 10 µM, 48h
Experimental: as §1, §2

[15] = test system: MDA-MB-435; assay: NCI-60 one-dose screen, sulforhodamine B; type: cell-based, human; settings: Melanoma MDA-MB-435, one dose 10 µM, 48h
Experimental: as §1, §2

[16] = test system: HCT-15; assay: NCI-60 one-dose screen, sulforhodamine B; type: cell-based, human; settings: Colon Cancer HCT-15, one dose 10 µM, 48h
Experimental: as §1, §2

[17] = test system: HOP-92; assay: NCI-60 one-dose screen, sulforhodamine B; type: cell-based, human; settings: Non-Small Cell Lung Cancer HOP-92, one dose 10 µM, 48h
Experimental: as §1, §2

[18] = test system: SN12C; assay: NCI-60 one-dose screen, sulforhodamine B; type: cell-based, human; settings: Renal Cancer SN12C, one dose 10 µM, 48h
Experimental: as §1, §2

[19] = test system: MDA-MB-468; assay: NCI-60 one-dose screen, sulforhodamine B; type: cell-based, human; settings: Breast Cancer MDA-MB-468, one dose 10 µM, 48h
Experimental: as §1, §2

[20] = test system: SF-295; assay: NCI-60 one-dose screen, sulforhodamine B; type: cell-based, human; settings: CNS Cancer SF-295, one dose 10 µM, 48h
Experimental: as §1, §2

[21] = test system: K-562; assay: NCI-60 one-dose screen, sulforhodamine B; type: cell-based, human; settings: Leukemia K-562, one dose 10 µM, 48h
Experimental: as §1, §2

[22] = test system: COLO 205; assay: NCI-60 one-dose screen, sulforhodamine B; type: cell-based, human; settings: Colon Cancer COLO 205, one dose 10 µM, 48h
Experimental: as §1, §2

[23] = test system: ACHN; assay: NCI-60 one-dose screen, sulforhodamine B; type: cell-based, human; settings: Renal Cancer ACHN, one dose 10 µM, 48h
Experimental: as §1, §2

[24] = test system: RPMI-8226; assay: NCI-60 one-dose screen, sulforhodamine B; type: cell-based, human; settings: Leukemia RPMI-8226, one dose 10 µM, 48h
Experimental: as §1, §2

[25] = test system: HCT-116; assay: NCI-60 one-dose screen, sulforhodamine B; type: cell-based, human; settings: Colon Cancer HCT-116, one dose 10 µM, 48h
Experimental: as §1, §2

[26] = test system: HS 578T; assay: NCI-60 one-dose screen, sulforhodamine B; type: cell-based, human; settings: Breast Cancer HS 578T, one dose 10 µM, 48h
Experimental: as §1, §2

[27] = test system: SR; assay: NCI-60 one-dose screen, sulforhodamine B; type: cell-based, human; settings: Leukemia SR, one dose 10 µM, 48h
Experimental: as §1, §2

[28] = test system: NCI-H460; assay: NCI-60 one-dose screen, sulforhodamine B; type: cell-based, human; settings: Non-Small Cell Lung Cancer NCI-H460, one dose 10 µM, 48h
Experimental: as §1, §2

[29] = test system: UACC-62; assay: NCI-60 one-dose screen, sulforhodamine B; type: cell-based, human; settings: Melanoma UACC-62, one dose 10 µM, 48h
Experimental: as §1, §2

[30] = test system: RXF 393; assay: NCI-60 one-dose screen, sulforhodamine B; type: cell-based, human; settings: Renal Cancer RXF 393, one dose 10 µM, 48h
Experimental: as §1, §2

[31] = test system: M14; assay: NCI-60 one-dose screen, sulforhodamine B; type: cell-based, human; settings: Melanoma M14, one dose 10 µM, 48h
Experimental: as §1, §2

[32] = test system: SK-MEL-2; assay: NCI-60 one-dose screen, sulforhodamine B; type: cell-based, human; settings: Melanoma SK-MEL-2, one dose 10 µM, 48h
Experimental: as §1, §2

[33] = test system: PC-3; assay: NCI-60 one-dose screen, sulforhodamine B; type: cell-based, human; settings: Prostate Cancer PC-3, one dose 10 µM, 48h
Experimental: as §1, §2

[34] = test system: HT29; assay: NCI-60 one-dose screen, sulforhodamine B; type: cell-based, human; settings: Colon Cancer HT29, one dose 10 µM, 48h
Experimental: as §1, §2

[35] = test system: NCI-H226; assay: NCI-60 one-dose screen, sulforhodamine B; type: cell-based, human; settings: Non-Small Cell Lung Cancer NCI-H226, one dose 10 µM, 48h
Experimental: as §1, §2

[36] = test system: SW-620; assay: NCI-60 one-dose screen, sulforhodamine B; type: cell-based, human; settings: Colon Cancer SW-620, one dose 10 µM, 48h
Experimental: as §1, §2

[37] = test system: SNB-75; assay: NCI-60 one-dose screen, sulforhodamine B; type: cell-based, human; settings: CNS Cancer SNB-75, one dose 10 µM, 48h
Experimental: as §1, §2

[38] = test system: SF-539; assay: NCI-60 one-dose screen, sulforhodamine B; type: cell-based, human; settings: CNS Cancer SF-539, one dose 10 µM, 48h
Experimental: as §1, §2

[39] = test system: HL-60(TB); assay: NCI-60 one-dose screen, sulforhodamine B; type: cell-based, human; settings: Leukemia HL-60(TB), one dose 10 µM, 48h
Experimental: as §1, §2

[40] = test system: NCI-H522; assay: NCI-60 one-dose screen, sulforhodamine B; type: cell-based, human; settings: Non-Small Cell Lung Cancer NCI-H522, one dose 10 µM, 48h
Experimental: as §1, §2

Row | Compound | GI% (10 µM) [1] | GI% (10 µM) [2] | GI% (10 µM) [3] | GI% (10 µM) [4] | GI% (10 µM) [5] | GI% (10 µM) [6] | GI% (10 µM) [7] | GI% (10 µM) [8] | GI% (10 µM) [9] | GI% (10 µM) [10] | GI% (10 µM) [11] | GI% (10 µM) [12] | GI% (10 µM) [13] | GI% (10 µM) [14] | GI% (10 µM) [15] | GI% (10 µM) [16] | GI% (10 µM) [17] | GI% (10 µM) [18] | GI% (10 µM) [19] | GI% (10 µM) [20] | also measured
1 | CSc1ccc2c(c1)N(C(=O)/C(C#N)=C/c1c[nH]c3ccccc13)c1ccccc1S2 [Compound 2k, (E)-3-(1H-Indol-3-yl)-2-(2-(methylthio)-10H-phenothiazine-10-carbonyl)acrylonitrile] | 70% | 80% | 53% | 70% | 76% | 89% | 58% | 59% | 50% | 63% | 61% | 65% | 77% | 60% | 88% | 73% | 56% | 66% | 88% | 85% | melting point: 194 to 195 °C; GI% (10 µM) [21]: 84%; GI% (10 µM) [22]: 59%; GI% (10 µM) [23]: 60%; GI% (10 µM) [24]: 79%; GI% (10 µM) [25]: 76%; GI% (10 µM) [26]: 62%; GI% (10 µM) [27]: 66%; GI% (10 µM) [28]: 55%; GI% (10 µM) [29]: 58%; GI% (10 µM) [30]: 61%; GI% (10 µM) [31]: 71%; GI% (10 µM) [32]: 64%; GI% (10 µM) [33]: 71%; GI% (10 µM) [34]: 88%; GI% (10 µM) [35]: 50%; GI% (10 µM) [36]: 65%
2 | COc1ccc2[nH]cc(/C=C(\C#N)C(=O)N3c4ccccc4Sc4ccc(SC)cc43)c2c1 [Compound 2l, (E)-3-(5-Methoxy-1H-indol-3-yl)-2-(2-(methylthio)-10H-phenothiazine-10-carbonyl)acrylonitrile] | 57% | 49% | 34% | 40% | 49% | 0% | 0% | 0% | 13% | 16% | 49% | 29% | 25% | 0% | 20% | 45% | 0% | 20% | 32% | 20% | GI% (10 µM) [37]: 0%; GI% (10 µM) [38]: 0%; GI% (10 µM) [39]: 19%; GI% (10 µM) [40]: 39%; GI% (10 µM) [21]: 43%; GI% (10 µM) [22]: 0%; GI% (10 µM) [23]: 23%; GI% (10 µM) [24]: 0%; GI% (10 µM) [25]: 40%; GI% (10 µM) [26]: 20%; GI% (10 µM) [27]: 0%; GI% (10 µM) [28]: 0%; GI% (10 µM) [29]: 0%; GI% (10 µM) [30]: 27%; GI% (10 µM) [31]: 36%; GI% (10 µM) [32]: 0%; GI% (10 µM) [33]: 60%; GI% (10 µM) [34]: 42%; GI% (10 µM) [35]: 35%; GI% (10 µM) [36]: 15%
